The target of data set [1] is T1, USP1/UAF1 complex (Homo sapiens, UniProt O94782, G670A/G671A).
T1 construct: This modified full length USP1 clone was PCR amplified and subcloned into pFastBac-HT vectors; His tag (N); made in house; host or cells: Sf9 insect cells (baculovirus)
The following applies: bioactive libraries; in the range of Al-Ub-treated positive control; previously shown, US 2008/0167229 A1; cited from earlier work.

For another data set, the system named is HeLa cells. The experiment in a line: DNA damage response markers by immunoblotting. It is filed as cell-based, human. The following applies: 24 hrs, MMC 1 μM positive control, FIG. 9A. The method, then:
FIG. 9 is a composite figure showing that C527 causes DNA damage and inhibits the proliferation of tumor cells. […] HeLa cells were treated with C527 at the indicated concentrations for 24 hrs, and cells were subjected to immunoblotting. Mitomycin C (MMC, 1 μM) was used as a positive control. […] HeLa cells were seeded in a 6-well plate and treated with C527 at the indicated concentrations. Cell proliferation was evaluated using a clonogenic assay.
Impaired HR integrity may lead to genotoxic effect. Genotoxic agents are known to directly activate DNA damage response pathways, resulting in FANCD2 monoubiquitination and CHK1 phosphorylation (FIG. 9A).

Data set [2] relates to HR pathway-proficient breast tumor line. To be noted: preliminary xenograft studies, data not shown. The source says:
Preliminary breast cancer xenograft studies with one HR pathway-proficient breast tumor line have been conducted.

Data set [3] relates to endogenous DUB enzyme complexes. In words: HA-Ub-VS labelling of other endogenous DUBs in HeLa cell extracts. It is filed as biochemical, human. To be noted: HeLa cell extracts pretreated 4 h (Ub-Ald 5 μM), then Ub-VS 40 min at 30° C.; FIG. 7. The method, then: FIG. 7 is a composite figure depicting preferential inhibition of the activity of native USP1/UAF1 by C527. HeLa cell extracts were incubated with ubiquitin-aldehyde (Ub-Ald, 5 μM) or C527 at indicated concentrations for 4 h, followed by the addition of 0.5 μM Ub-Vs for 40 min. The reaction was split into two aliquots and subjected to immunoblotting for HA or USP1, respectively.
The ability of C527 to inhibit the deubiquitinating activity of native USP1 complexes derived from human cells was determined next (FIG. 7). For this purpose, the HA-tagged ubiquitin-VS, an affinity reagent known to covalently modify and trap active DUB enzymes in cell extracts was used. Cell extracts prepared from HeLa cells were pretreated with increasing concentrations of C527 for 4 h, followed by the incubation with Ub-VS for 40 min at 30° C. The enzymatic activity of endogenous DUBs was indicated by the conjugation of Ub-VS, detected as HA-labeling (see FIG. 7, high molecular weight bands). […] Ub-VS conjugation was inhibited by ubiquitin-aldehyde (Ub-Ald), a non-specific inhibitor of DUBs (lane 3).

Data set [4] concerns the target T1, USP1/UAF1 complex. In words: ubiquitin-AMC in vitro deubiquitination enzyme assay. It is filed as biochemical. The following applies: 4 hour preincubation; AMC-Ub in vitro enzyme assay; read-out: IC50. Here is the method:
Purified USP1/UAF1 complex was incubated with 1 μM C527 or DMSO for indicated time, followed by the addition of Ub-AMC at 0.5 μM final concentration. The fluorescence at […] was measured to indicate the enzymatic activity of USP1. […] 5A.
The in vitro enzymatic assays were performed using purified proteins from Sf9 cells as described previously (Cohn et al.). The assays using ubiquitin-AMC (Ub-7-amido-4-methylcoumarin; Boston Biochem) as substrate was carried out in a reaction buffer containing 20 mM HEPES-KOH (pH 7.8), 20 mM NaCl, 0.1 mg/ml ovalbumin, 0.5 mM EDTA and 10 mM dithiothreitol. The fluorescence was measured by FluoStar Galaxy Fluorometer (BMG Labtech). For the Ub-vinylsulfone (VS) assay, the proteins were incubated with Ub-VS at 0.5 μM final concentration for 1 h at 30° C., followed by the immunoblotting analysis.
In order to develop a highly sensitive assay with easy readout for high throughput detection, the fluorogenic compound Ubiquitin-7-amido-4-methylcoumarin (AMC-Ub, Boston Biochem) was used as a substrate for USP1/UAF1 enzyme complex. USP1 catalyzes the cleavage of AMC-Ub, releasing free AMC moiety, which leads to increase in fluorescence emission at 460 nm (λex=380 nm). Dang et al. (1998) Biochemistry 37:1868-79. […] Initial enzyme assay development was performed in 96-well plates with 100 μl reaction volume containing 20 mM HEPES-KOH, 0.1 mg/ml ovalbumin (Sigma), 0.5 mM EDTA, and 10 mM DTT. 2.5 nM USP1/UAF1 enzyme complex was mixed with the reaction buffer, incubated at 37° C. for 10 minutes and then 0.3 μM AMC-Ub was added. Fluorescence was measured using a Fluostar Galaxy Fluorometer (BMG Labtech Inc.).
Hits from the initial screening were analyzed further in secondary screening. In this step, the compounds were re-tested for inhibition using the AMC-Ub in vitro enzyme assay. After reconfirming inhibition, different concentration range of the inhibitors were tested to show dose dependency of inhibition and IC50 calculation.

In data set [5] the target is T1, USP1/UAF1 complex. In words: high throughput screening for inhibitors of USP1 deubiquitinating activity. It is filed as biochemical. The following applies: library of approximately 150,000 compounds. Here is the method: The ubiquitin-Rho based enzyme assay for high throughput screening was established in a 384-well format. The reaction buffer containing and USP1/UAF1 complex were added in 384 well plates using automated liquid handling robot-Bio-Tek Microfill (Bio-Tek Instrments Inc., VT), followed by addition of the compounds (in DMSO) from the compound library plates to wells using a pin transfer robotic system at a final concentration of 10 μM. The reaction was composed of 0.1 nM purified USP1/UAF complex, 75 nM ubiquitin Rhodamine (Ub-Rho, Boston Biochem, U-600) and 2 μM ubiquitin. Fluorescence was monitored in a FluoStar Galaxy Fluorometer (BMG Labtech). Fluorescence emission at 535 nm (λex=485 nm) was measured in an automated plate reader Envision 2 (Perkin Elmer, Mass.).
In order to develop a highly sensitive assay with easy readout for high throughput detection, the fluorogenic compound Ubiquitin-7-amido-4-methylcoumarin (AMC-Ub, Boston Biochem) was used as a substrate for USP1/UAF1 enzyme complex. USP1 catalyzes the cleavage of AMC-Ub, releasing free AMC moiety, which leads to increase in fluorescence emission at 460 nm (λex=380 nm). Dang et al. (1998) Biochemistry 37:1868-79. Catalytic activity towards AMC-Ub increases 35 fold compared to USP1 enzyme alone. Initial enzyme assay development was performed in 96-well plates with 100 μl reaction volume containing 20 mM HEPES-KOH, 0.1 mg/ml ovalbumin (Sigma), 0.5 mM EDTA, and 10 mM DTT. 2.5 nM USP1/UAF1 enzyme complex was mixed with the reaction buffer, incubated at 37° C. for 10 minutes and then 0.3 μM AMC-Ub was added. Fluorescence was measured using a Fluostar Galaxy Fluorometer (BMG Labtech Inc.).
Once the preliminary enzyme assay was established in 96-well format, it was optimized for 384 wells for high throughput screening (HTS) of inhibitors. The major points to be considered were the volume of the reaction and amount of AMC-Ub substrate to be used in the assay. Since the price of AMC-Ub is very high, in order to make it a feasible assay for HTS, lowest workable amount of the AMC conjugate was used. Reaction volume was minimized to 30 μl in order to meet the recommendation of ICCB-L screening facility (Harvard). In the preliminary optimization experiment, a series of pilot experiments were performed with varying AMC-Ub concentrations (0.025 μM to 0.2 μM), along with the varying concentration of USP1/UAF1 complex (0.2 nM to 3.2 nM). […] After incubating the enzyme and buffer at 37° C. for 10 minutes, AMC-Ub was added and fluorescence emission at 460 nm (λex=380 nm) was measured in an automated plate reader Envision 2 (Perkin Elmer). Fluorescence reading for all time points up to one hour was noted and the data for different AMC-Ub concentration range was plotted with each USP1/UAF1 enzyme complex concentration. […]

T1 sequence (O94782 whole entry G670A/G671A): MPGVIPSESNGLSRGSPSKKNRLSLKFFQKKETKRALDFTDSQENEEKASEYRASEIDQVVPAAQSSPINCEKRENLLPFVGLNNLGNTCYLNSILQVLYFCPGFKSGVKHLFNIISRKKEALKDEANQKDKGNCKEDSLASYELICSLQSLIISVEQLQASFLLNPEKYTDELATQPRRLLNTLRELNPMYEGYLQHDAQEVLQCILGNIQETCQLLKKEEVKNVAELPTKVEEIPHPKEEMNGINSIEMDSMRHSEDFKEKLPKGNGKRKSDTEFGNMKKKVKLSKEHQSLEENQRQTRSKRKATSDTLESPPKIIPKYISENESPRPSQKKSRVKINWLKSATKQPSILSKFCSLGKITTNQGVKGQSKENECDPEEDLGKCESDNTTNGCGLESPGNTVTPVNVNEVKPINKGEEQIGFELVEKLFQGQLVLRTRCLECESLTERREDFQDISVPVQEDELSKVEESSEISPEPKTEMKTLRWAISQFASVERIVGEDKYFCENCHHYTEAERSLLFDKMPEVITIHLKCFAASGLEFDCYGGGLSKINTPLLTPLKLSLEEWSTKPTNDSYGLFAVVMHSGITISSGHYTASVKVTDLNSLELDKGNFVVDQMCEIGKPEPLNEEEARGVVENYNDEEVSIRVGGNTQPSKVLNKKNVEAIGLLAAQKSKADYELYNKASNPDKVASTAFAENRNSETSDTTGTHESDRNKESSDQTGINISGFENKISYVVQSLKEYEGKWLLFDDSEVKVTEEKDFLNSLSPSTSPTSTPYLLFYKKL
T1 sequence (Q8TAF3 whole entry partner): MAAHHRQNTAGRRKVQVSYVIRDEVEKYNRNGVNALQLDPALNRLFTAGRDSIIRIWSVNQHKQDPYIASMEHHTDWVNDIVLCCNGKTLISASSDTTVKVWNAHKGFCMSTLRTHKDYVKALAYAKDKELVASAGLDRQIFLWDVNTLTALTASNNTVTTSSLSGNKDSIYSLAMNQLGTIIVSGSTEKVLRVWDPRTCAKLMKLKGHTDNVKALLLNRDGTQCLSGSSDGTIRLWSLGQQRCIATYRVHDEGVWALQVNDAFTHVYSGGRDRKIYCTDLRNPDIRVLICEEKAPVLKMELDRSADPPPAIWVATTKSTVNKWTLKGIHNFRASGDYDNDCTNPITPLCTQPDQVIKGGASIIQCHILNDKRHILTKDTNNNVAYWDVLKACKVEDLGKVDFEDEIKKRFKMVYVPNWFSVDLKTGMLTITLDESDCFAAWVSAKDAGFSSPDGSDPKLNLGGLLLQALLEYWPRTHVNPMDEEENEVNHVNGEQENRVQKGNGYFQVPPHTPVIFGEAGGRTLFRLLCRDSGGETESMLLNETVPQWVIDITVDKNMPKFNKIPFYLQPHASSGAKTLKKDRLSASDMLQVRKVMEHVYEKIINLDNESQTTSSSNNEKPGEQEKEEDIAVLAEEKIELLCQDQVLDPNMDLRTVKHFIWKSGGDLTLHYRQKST

As for `CC1(C)CCC2=C(O1)c1ccccc1C(=O)C2=O` [β-lapachone], on USP1/UAF1 complex [1], the “fluorescence signal in high throughput screen” value (“fluorescence signal” for short) was “substantial low fluorescence signal”.

On to `CO[C@@]12[C@H](COC(N)=O)C3=C(C(=O)C(C)=C(N)C3=O)N1C[C@@H]1N[C@@H]12` [MMC, mitomycin C], for which the “markers of the DNA damage response (FANCD2 monoubiquitination, CHK1 phosphorylation)” value with HeLa cells was “can activate markers of the DNA damage response”.

For `CC(C)C[C@H](NC(=O)[C@H](Cc1ccccc1)NC(=O)c1cnccn1)B(O)O` [Bortezomib], in data set [2], the FA/BRCA pathway entry is given as “inhibited the FA/BRCA pathway”.

Turning to Ub-aldehyde [reference compound], the “Ub-VS labeling of endogenous DUBs (HA-labeling)” value in data set [3] is listed as “inhibited”.

What is called IC50 is the concentration at which inhibition is half-maximal. `COc1ccc(CN2C(=O)Cc3ccccc3C2=O)cc1OC` [Formula VI (009)]: the IC50 at USP1/UAF1 complex [4] amounted to 2.4 µM. For the same molecule, at USP1/UAF1 complex [5], the “identified as inhibitor of USP1 in initial in vitro screening” value (“identified as inhibitor of USP1” below) was “inhibitors of USP1”.

Consider `O=C1Cc2ccccc2C(=O)N1Cc1ccco1` [Formula V (947)], for which the IC50 on USP1/UAF1 complex [4] was 7.5 µM. Besides, the “identified as inhibitor of USP1” value at USP1/UAF1 complex [5] is listed as “inhibitors of USP1”.

With `CC[N+](C)(CC)CCC[n+]1c(-c2ccccc2)c2cc(N)ccc2c2ccc(N)cc21.[I-].[I-]` [Biomol AP401 (propidium iodide), propidium iodide], the “fluorescence signal” value at USP1/UAF1 complex [1] is given as “substantial low fluorescence signal”.

As to `NC1=C(Cl)C(=O)c2ccccc2C1=O` [Formula III (933)], at USP1/UAF1 complex [5], the “identified as inhibitor of USP1” value is on record as “inhibitors of USP1”.

With `CCCCCCCCCCCCCCCC(=O)C1=C(O)C(CO)OC1=O` (centres unmarked) [RK-682], the “fluorescence signal” value on USP1/UAF1 complex [1] is reported as “substantial low fluorescence signal”.

The record behind these values is US10653676B2 (Dana-Farber Cancer Institute, Inc., priority 2010, dated 2020).
